Results from ChEMBL document CHEMBL4422646, “Synthesis and biological evaluation of 3-amino-, 3-alkoxy- and 3-aryloxy-6-(hetero)arylpyridazines as potent antitumor agents” (Bioorg Med Chem Lett, 2019).

How the values were obtained:
NCI-H727 = experiment: Antiproliferative activity against human NCI-H727 cells after 48 hrs by Hoechst 33342 staining-based assay; format: functional, cell-based; details: NCI-H727, 48 h
PC-3 [1] = experiment: Antiproliferative activity against human PC3 cells after 48 hrs by Hoechst 33342 staining-based assay; format: functional, cell-based; details: PC-3, 48 h
MDA-MB-231 [2] = experiment: Antiproliferative activity against human MDA-MB-231 cells after 48 hrs by Hoechst 33342 staining-based assay; format: functional, cell-based; details: MDA-MB-231, 48 h
Caco-2 = experiment: Antiproliferative activity against human Caco2 cells after 48 hrs by Hoechst 33342 staining-based assay; format: functional, cell-based; details: Caco-2, 48 h
Fibroblast = experiment: Antiproliferative activity against human fibroblast cells after 48 hrs by Hoechst 33342 staining-based assay; format: cell-based
HaCaT [3] = experiment: Antiproliferative activity against human HaCaT cells after 48 hrs by Hoechst 33342 staining-based assay; format: cell-based
HCT-116 [4] = experiment: Antiproliferative activity against human HCT116 cells after 48 hrs by Hoechst 33342 staining-based assay; format: functional, cell-based; details: HCT-116, 48 h
Huh-7 [5] = experiment: Antiproliferative activity against human HuH7 cells after 48 hrs by Hoechst 33342 staining-based assay; format: functional, cell-based; details: Huh-7, 48 h
Huh-7 [6] = experiment: Antiproliferative activity against human HuH7 cells at 0.1 to 25 uM after 48 hrs by Hoechst 33342 staining-based assay relative to control; format: functional
HCT-116 [7] = experiment: Antiproliferative activity against human HCT116 cells at 0.1 to 25 uM after 48 hrs by Hoechst 33342 staining-based assay relative to control; format: functional
HaCaT [8] = experiment: Antiproliferative activity against human HaCaT cells at 0.1 to 25 uM after 48 hrs by Hoechst 33342 staining-based assay relative to control; format: cell-based
MDA-MB-231 [9] = experiment: Antiproliferative activity against human MDA-MB-231 cells at 0.1 to 25 uM after 48 hrs by Hoechst 33342 staining-based assay relative to control; format: functional
PC-3 [10] = experiment: Antiproliferative activity against human PC3 cells at 0.1 to 25 uM after 48 hrs by Hoechst 33342 staining-based assay relative to control; format: functional

Row | IC50 (NCI-H727) | IC50 (PC-3 [1]) | IC50 (MDA-MB-231 [2]) | IC50 (Caco-2) | IC50 (HCT-116 [4]) | IC50 (Huh-7 [5]) | Structure (SMILES) | IC50 (Fibroblast) | IC50 (HaCaT [3]) | Activity (Huh-7 [6]) | Activity (HCT-116 [7]) | Activity (HaCaT [8]) | Activity (MDA-MB-231 [9]) | Activity (PC-3 [10])
1 | > 25 µM | > 25 µM | > 25 µM | > 25 µM | > 25 µM | > 25 µM | CCN(CC)c1ccc(-c2cccc(OC)c2)nn1 | > 25 µM | > 25 µM | – | – | – | – | –
2 | > 25 µM | > 25 µM | > 25 µM | 50 µM | > 25 µM | 30 µM | COc1ccc(Nc2ccc(-c3ccccc3)nn2)cc1 | > 25 µM | > 25 µM | 75% | – | – | – | –
3 | > 25 µM | > 25 µM | > 25 µM | 50 µM | > 25 µM | 30 µM | COC(=O)c1cccc(-c2ccc(-n3cccc3)nn2)c1 | > 25 µM | > 25 µM | 75% | – | – | – | –
4 | > 25 µM | > 25 µM | > 25 µM | > 25 µM | > 25 µM | > 25 µM | Fc1ccc(-c2ccc(N3CCOCC3)nn2)cc1 | > 25 µM | > 25 µM | – | – | – | – | –
5 | > 25 µM | > 25 µM | > 25 µM | > 25 µM | > 25 µM | > 25 µM | CCN(CC)c1ccc(-c2ccc(C#N)cc2)nn1 | > 25 µM | > 25 µM | – | – | – | – | –
6 | > 25 µM | > 25 µM | > 25 µM | > 25 µM | > 25 µM | > 25 µM | COc1ccc(-c2ccc(N3CCOCC3)nn2)cc1 | > 25 µM | > 25 µM | – | – | – | – | –
7 | > 25 µM | > 25 µM | > 25 µM | > 25 µM | > 25 µM | > 25 µM | c1ccc(Oc2ccc(-c3ccsc3)nn2)cc1 | > 25 µM | > 25 µM | – | – | – | – | –
8 | > 25 µM | > 25 µM | > 25 µM | > 25 µM | > 25 µM | > 25 µM | Cc1cccc(-c2ccc(Oc3ccc(F)cc3)nn2)c1 | > 25 µM | > 25 µM | – | – | – | – | –
9 | > 25 µM | > 25 µM | > 25 µM | > 25 µM | > 25 µM | > 25 µM | CCN(CC)c1ccc(-c2cccc(Cl)c2)nn1 | > 25 µM | > 25 µM | – | – | – | – | –
10 | > 25 µM | > 25 µM | > 25 µM | 50 µM | > 25 µM | 30 µM | Cc1ccc(-c2ccc(N3CCN(c4ccccc4)CC3)nn2)cc1 | > 25 µM | > 25 µM | 75% | – | – | – | –
11 | > 25 µM | > 25 µM | > 25 µM | 50 µM | > 25 µM | 30 µM | COc1ccccc1-c1ccc(N2CCN(C)CC2)nn1 | > 25 µM | > 25 µM | 75% | – | – | – | –
12 | > 25 µM | > 25 µM | > 25 µM | > 25 µM | > 25 µM | > 25 µM | c1ccc2nc(-c3ccc(N4CCOCC4)nn3)ccc2c1 | > 25 µM | > 25 µM | – | – | – | – | –
13 | > 25 µM | > 25 µM | > 25 µM | > 25 µM | > 25 µM | > 25 µM | CCOC(=O)c1cccc(-c2ccc(N3CCOCC3)nn2)c1 | > 25 µM | > 25 µM | – | – | – | – | –
14 | > 25 µM | > 25 µM | > 25 µM | > 25 µM | > 25 µM | > 25 µM | Cc1cccc(-c2ccc(N3CCOCC3)nn2)c1 | > 25 µM | > 25 µM | – | – | – | – | –
15 | > 25 µM | > 25 µM | > 25 µM | > 25 µM | > 25 µM | > 25 µM | c1ccc(-c2ccc(N3CCOCC3)nn2)cc1 | > 25 µM | > 25 µM | – | – | – | – | –
16 | > 25 µM | 1.2 µM | 8 µM | 0.8 µM | 3 µM | 6 µM | Oc1cccc(-c2nc(N3CCOCC3)c3oc4ncccc4c3n2)c1 [PI-103] | > 25 µM | 2 µM | 40% | 80% | 70% | 40% | 60%
17 | > 25 µM | > 25 µM | > 25 µM | > 25 µM | > 25 µM | > 25 µM | CCOC(=O)c1ccc(-c2ccc(OC(C)C)nn2)cc1 | > 25 µM | > 25 µM | – | – | – | – | –

Row | IC50 (NCI-H727) | IC50 (PC-3 [1]) | IC50 (MDA-MB-231 [2]) | IC50 (Caco-2) | IC50 (HCT-116 [4]) | IC50 (Huh-7 [5]) | Structure (SMILES) | IC50 (Fibroblast) | IC50 (HaCaT [3]) | Activity (Huh-7 [6]) | Activity (HCT-116 [7]) | Activity (HaCaT [8]) | Activity (MDA-MB-231 [9]) | Activity (PC-3 [10])
18 | > 25 µM | > 25 µM | > 25 µM | > 25 µM | > 25 µM | > 25 µM | COc1ccc(-c2ccc(Oc3ccccc3)nn2)cc1 | > 25 µM | > 25 µM | – | – | – | – | –
19 | > 25 µM | > 25 µM | > 25 µM | > 25 µM | > 25 µM | > 25 µM | CC(=O)c1cccc(-c2ccc(OCc3ccccc3)nn2)c1 | > 25 µM | > 25 µM | – | – | – | – | –
20 | > 25 µM | > 25 µM | > 25 µM | > 25 µM | > 25 µM | > 25 µM | CCN(CC)c1ccc(-c2cccc(C#N)c2)nn1 | > 25 µM | > 25 µM | – | – | – | – | –
21 | > 25 µM | > 25 µM | > 25 µM | > 25 µM | > 25 µM | > 25 µM | FC(F)(F)c1cccc(-c2ccc(Oc3ccccc3)nn2)c1 | > 25 µM | > 25 µM | – | – | – | – | –
22 | > 25 µM | > 25 µM | > 25 µM | > 25 µM | > 25 µM | > 25 µM | CCOC(=O)c1ccc(-c2ccc(OCC)nn2)cc1 | > 25 µM | > 25 µM | – | – | – | – | –
23 | > 25 µM | > 25 µM | > 25 µM | > 25 µM | > 25 µM | > 25 µM | c1cc(-c2ccc(N3CCOCC3)nn2)cs1 | > 25 µM | > 25 µM | – | – | – | – | –
24 | > 25 µM | > 25 µM | > 25 µM | > 25 µM | > 25 µM | > 25 µM | CCN(CC)c1ccc(-c2cccc(C(F)(F)F)c2)nn1 | > 25 µM | > 25 µM | – | – | – | – | –
25 | > 25 µM | > 25 µM | > 25 µM | 50 µM | > 25 µM | 30 µM | CN1CCN(c2ccc(-c3cccc(C(F)(F)F)c3)nn2)CC1 | > 25 µM | > 25 µM | 75% | – | – | – | –
26 | > 25 µM | > 25 µM | > 25 µM | > 25 µM | > 25 µM | > 25 µM | CCN(CC)c1ccc(-c2ccc(C(=O)O)cc2)nn1 | > 25 µM | > 25 µM | – | – | – | – | –
27 | > 25 µM | > 25 µM | > 25 µM | 50 µM | > 25 µM | 30 µM | FC(F)(F)c1cccc(-c2ccc(N3CCCC3)nn2)c1 | > 25 µM | > 25 µM | 75% | – | – | – | –
28 | > 25 µM | > 25 µM | > 25 µM | 50 µM | > 25 µM | 30 µM | CC(=O)c1ccc(-c2ccc(N3CCCC3)nn2)cc1 | > 25 µM | > 25 µM | 75% | – | – | – | –
29 | > 25 µM | > 25 µM | > 25 µM | > 25 µM | > 25 µM | > 25 µM | CCCCOc1ccc(-c2cccc(C#N)c2)nn1 | > 25 µM | > 25 µM | – | – | – | – | –
30 | > 25 µM | > 25 µM | > 25 µM | > 25 µM | > 25 µM | > 25 µM | CCOC(=O)c1ccccc1-c1ccc(N2CCOCC2)nn1 | > 25 µM | > 25 µM | – | – | – | – | –
31 | > 25 µM | > 25 µM | > 25 µM | > 25 µM | > 25 µM | > 25 µM | c1cncc(-c2ccc(N3CCOCC3)nn2)c1 | > 25 µM | > 25 µM | – | – | – | – | –
32 | > 25 µM | > 25 µM | > 25 µM | > 25 µM | > 25 µM | > 25 µM | CCCCOc1ccc(-c2ccc(C(=O)OCC)cc2)nn1 | > 25 µM | > 25 µM | – | – | – | – | –
33 | > 25 µM | > 25 µM | > 25 µM | > 25 µM | > 25 µM | > 25 µM | CCOC(=O)c1ccc(-c2ccc(N3CCOCC3)nn2)cc1 | > 25 µM | > 25 µM | – | – | – | – | –
34 | > 25 µM | > 25 µM | > 25 µM | > 25 µM | > 25 µM | > 25 µM | N#Cc1ccc(Oc2ccc(-c3ccccc3)nn2)cc1 | > 25 µM | > 25 µM | – | – | – | – | –

Row | Structure (SMILES) | IC50 (NCI-H727) | IC50 (PC-3 [1]) | IC50 (MDA-MB-231 [2]) | IC50 (Caco-2) | IC50 (HCT-116 [4]) | IC50 (Huh-7 [5]) | IC50 (Fibroblast) | IC50 (HaCaT [3]) | Activity (Huh-7 [6]) | Activity (HCT-116 [7]) | Activity (HaCaT [8]) | Activity (MDA-MB-231 [9]) | Activity (PC-3 [10])
35 | FC(F)(F)c1cccc(-c2ccc(N3CCOCC3)nn2)c1 | > 25 µM | > 25 µM | > 25 µM | > 25 µM | > 25 µM | > 25 µM | > 25 µM | > 25 µM | – | – | – | – | –
